Laboratory results from patent US20230390384A1 (priority 2020, published 2023).

How the values were obtained:
[1] = tested on: COVID-19 RBD antigen; format: in vivo, SARS-CoV-2; conditions: Example 2, FIG. 6b; 5 μg each S1 and RBD; L-pampo 75 μg Pam3CSK4 + 60 μg poly(I:C) vs Alum, Addavax, AddaS03; Balb/c mice i.m. twice at 3-week intervals, serum 2 weeks after second immunization
[2] = tested on: COVID-19 S1 antigen; format: in vivo, SARS-CoV-2; conditions: Example 2, FIG. 6a; 5 μg each S1 and RBD; L-pampo 75 μg Pam3CSK4 + 60 μg poly(I:C) vs Alum, Addavax, AddaS03; Balb/c mice i.m. twice at 3-week intervals, serum 2 weeks after second immunization
[3] = tested on: Mouse splenocytes; assay: IFN-γ ELISPOT on splenocytes of immunized mice (cellular immune response); format: in vivo, Balb/c mice; conditions: Example 3, FIG. 11; test vaccine using only poly(I:C) as adjuvant, among all test vaccines

Substance | RBD antigen-specific antibody titer [1] | S1 antigen-specific antibody titer [2] | IFN-γ spot formation (ELISPOT) [3]
N-palmitoyl-S-[2,3-bis(palmitoyloxy)-(2RS)-propyl]-[R]-cystein-SKKKK [Pam3CSK4] | relatively superior | relatively superior | 
poly(I:C) |  |  | most IFN-γ spot formation
